Series [1] can be described thus: Pharmacokinetic study, oral dosing in BALB/c mice (AUC/D). It is filed as in vivo. As to conditions: dosed orally in mice; when Compound 43 was dosed, levels of Compound 19 were measured; when Compound 46 was dosed, levels of Compound 10. As for the experimental part:
(§1) Alternatively, compounds were dosed orally to BALB/c mice, using appropriate formulations and doses. Serial blood samples were collected at selected time points post-dosing. Plasma was separated from the blood by centrifugation. 25 μL of plasma (sample, standard or QC) was combined with 25 μL of internal standard and 250 μL acetonitrile. Following vortexing to mix, the plates were centrifuged to separate the precipitated proteins. A 50 μL aliquot of the supernatant was transferred to a clean 96-well plate and diluted with 100 μL 0.1% formic acid. Stock standards were prepared in DMSO, with intermediate dilutions in acetonitrile:water (50:50, by volume). Samples were analyzed by LC-MS. The drug level curves were used to calculate dose-normalized area under the curve (AUC/D) data, which are reported as μg-hr/mL per mg/kg.
When Compound 43 was dosed, levels of Compound 19 were measured; when Compound 46 was dosed, levels of Compound 10 were measured. Thus, Compounds 43 and 46 serve as prodrugs for Compounds 19 and 10, respectively. Administration of 4′″-modified prodrugs provided greater exposure to the 4′″ deacylated metabolite as compared to administration of the corresponding metabolite itself. […]

A further series concerns S. aureus ATCC29213. Put plainly: Broth microdilution MIC. It is filed as cell-based. As to conditions: Staphylococcus aureus, 35° C., approximately 20 hours. As for the experimental part: (§2) Minimum inhibitory concentration (“MIC”) values for the isolates were determined using a broth microdilution method. The wells of a standard 96-well microdilution plate (Costar 3795, Corning Inc., Corning, N.Y.) were filled with 150 μL of an appropriate diluent. For test compounds supplied as powders, Column 1 was filled with 300 μL of either the investigational or comparator agents at the appropriate stock concentration (40× the highest test concentration). A Biomek 200 was used to make eleven 2-fold serial dilutions to create a “mother plate”. For compounds supplied as DMSO stocks, compounds were diluted to 50× the highest test concentrations and 2-fold serial dilutions were made manually.
(§3) For compounds supplied as solids, “daughter plates” were loaded with 185 μL using the Multidrop 384. These daughter plates were prepared on the Biomek F/X instrument which transferred 5 μL of drug solution from each well of the mother plate to each corresponding well of each daughter plate in a single step. For compounds supplied as DMSO stock, daughter plates were filled with 90 μL of media and 2 μL of drug solution from each well of the mother plate was added to each corresponding well manually.
(§4) A suspension of standardized inoculum for each organism, equivalent to a 0.5 McFarland standard, was diluted 1:10 in Mueller Hinton II broth resulting in a final concentration of approximately 5×10^5 CFU/mL during testing. Inocula were transferred to compartments of sterile reservoirs divided by length. The Biomek 2000 was used to inoculate all plates. Daughter plates were placed on the Biomek 2000 in reverse orientation so that plates were inoculated from low to high drug concentration. The Biomek 2000 delivered 10 μL of standardized inoculum into each well of the appropriate daughter plate. The final concentration of DMSO (if used as a solvent) in the test wells was 2.5%.
(§5) Plates were stacked 3 high, covered with a lid on the top plate, placed into plastic bags, and incubated at 35° C. for approximately 20 hours. […] MIC values were read where visible growth of the organism was inhibited.
Background: In broth dilution the organism is exposed to a series of concentrations in liquid medium.

In the next series the test system is S. pneumonia ATCC49619. Put plainly: Broth microdilution MIC. It is filed as cell-based. As to conditions: Streptococcus pneumoniae, 35° C., approximately 20 hours. As for the experimental part: as §2, §3, §4, §5
The subject of another series is H. influenza ATCC49247. Put plainly: Broth microdilution MIC. As to conditions: Haemophilus influenzae, 35° C., approximately 20 hours. It is filed as cell-based. The protocol:
as §2, §3, §4, §5

Another series has as its system S. epidermis ATCC49134. Put plainly: Broth microdilution MIC. In kind it is cell-based. As to conditions: Staphylococcus epidermidis, 35° C., approximately 20 hours. As for the experimental part:
as §2, §3, §4, §5

The test system of a further series is E. faecalis ATCC29212. Put plainly: Broth microdilution MIC. It is filed as cell-based. As to conditions: Enterococcus faecalis, 35° C., approximately 20 hours. The protocol:
as §2, §3, §4, §5

The nature of series [2]: Pharmacokinetic study, oral dosing in Sprague-Dawley rats (AUC/D). As to conditions: dosed orally in rats; dose-normalized plasma AUC. It is filed as in vivo. The protocol: as §1, with “Compounds” for “Alternatively, compounds”, “Sprague-Dawley rats,” for “BALB/c mice,”
Series [3] concerns Staphylococcus aureus ATCC 25923. Put plainly: Agar disc diffusion assay (zone of inhibition). In kind it is cell-based. As to conditions: 10 μg on 7 mm paper disc (antibacterial standard). As for the experimental part: Antibacterial tests were performed on a series of tylosin A derivatives via the ‘agar disc diffusion’ assay. This assay is employed to determine the sensitivity of pathogens to chemical entities under investigation and is a standardized procedure outlined in 1961 by the World Health Organization.
Bacteria tested were a standard gram positive organism; Staphylococcus aureus ATCC 25923 (available from the American Type Culture Collection).
Colonies of bacteria are dispensed into liquid Mueller-Hinton II broth (available from Becton, Dickinson and Company), agitated and then streaked onto prepared Mueller-Hinton agar plates. Bacteria were allowed to grow for 16 hours at 37 degrees C. A sterile loupe was used to select 4-5 isolates from the cultures thus grown, and dispensed into Mueller-Hinton broth. […]
To obtain a dose response curve against Staphylococcus aureus, 20 μL (20 nanomoles) of each tylosin A derivative to be tested as obtained from the company compound repository at 1 mM stock solution in DMSO was dispensed onto a 7 mm blank paper disc (available from BBL, Le Pont du Claire, France). […] At this time, the ‘zone of inhibition’ around each 7 mm paper disc (inclusive of the disc itself) was measured and recorded in Table 6 below.
In general terms: A growth-free zone around the sample is the usual read-out of agar diffusion tests.

Series [4] is described as follows: Parent vs. metabolite levels in plasma after oral dosing in rats. It is filed as in vivo. As to conditions: oral 20 mg/kg, based on AUC(0-∞), 10 plasma samples over 12 hours, vs 4″-debenzylated metabolite. As for the experimental part:
Pharmacokinetic properties of compounds having three non-hydrogen substituents at the alpha-position of the ester (i.e., a tri-substituted ester) were further examined. A compound having a 4″-tri-substituted ester moiety (Compound 14) was compared to a di-substituted control compound. The compounds were dosed orally, 20 mg/kg, in rats.
Pharmacokinetic properties of compounds having a 4″-benzyl moiety were further examined. A compound having a 4″-halobenzyl moiety (Compound 10) was compared to a compound having an unsubstituted 4″-benzyl moiety. The compounds were dosed orally, 20 mg/kg, in rats.

These results are taken from US20160200757A1, “TYLOSIN A ANALOGS AND DERIVATIVES” (AbbVie Inc., priority 2014, published 2016).

Values after ≈ are worked out from the molar mass of the structure shown.

`CC[C@H]1OC(=O)C[C@@H](O)[C@H](C)[C@@H](O[C@@H]2O[C@H](C)[C@@H](O[C@H]3C[C@@](C)(O)[C@@H](O)[C@H](C)O3)[C@H](N(C)C)[C@H]2O)[C@@H](CC=O)C[C@@H](C)C(=O)/C=C/C(C)=C/[C@@H]1CO[C@@H]1O[C@H](C)[C@@H](O)[C@@H](OC)[C@H]1OC` [Tylosin A, 2-((4R,5S,6S,7R,9R,11E,13E,15R,16R)-6-(((2R,3R,4R,5S,6R)-5-(((2S,4R,5S,6S)-4,5-dihydroxy-4,6-dimethyltetrahydro-2H-pyran-2-yl)oxy)-4-(dimethylamino)-3-hydroxy-6-methyltetrahydro-2H-pyran-2-yl)oxy)-16-ethyl-4-hydroxy-15-((((2R,3R,4R,5R,6R)-5-hydroxy-3,4-dimethoxy-6-methyltetrahydro-2H-pyran-2-yl)oxy)methyl)-5,9,13-trimethyl-2,10-dioxooxacyclohexadeca-11,13-dien-7-yl)acetaldehyde]: the AUC/D came to 0.0054 μg-hr/mL per mg/kg in [1] and 0.0097 μg-hr/mL per mg/kg in series [2]. Also, the MIC in the series with S. aureus ATCC29213 came out at 2 µg/mL (≈ 2.18 µM); with S. pneumonia ATCC49619, 0.25 µg/mL (≈ 0.273 µM); in the series on H. influenza ATCC49247 it was 16 µg/mL (≈ 17.5 µM); in the series on S. epidermis ATCC49134 it was 1 µg/mL (≈ 1.09 µM); in the series with E. faecalis ATCC29212 it was 1 µg/mL (≈ 1.09 µM).
In turn, Gentamicin had a Zone of inhibition in [3] of 23 mm.
Consider `CC[C@H]1OC(=O)C[C@@H](O)[C@H](C)[C@@H](O[C@@H]2O[C@H](C)[C@@H](O[C@H]3C[C@@](C)(O)[C@@H](OCc4ccccc4)[C@H](C)O3)[C@H](N(C)C)[C@H]2O)[C@@H](CC=O)C[C@@H](C)C(=O)/C=C/C(C)=C/[C@@H]1CO[C@@H]1O[C@H](C)[C@@H](O)[C@@H](OC)[C@H]1OC` [Compound G, Tylosin A 4″ O-Benzyl], for which the Parent % in series [4] was found to be 95%. The MIC with S. aureus ATCC29213 came to 4 µg/mL (≈ 3.98 µM); in the series with S. pneumonia ATCC49619 it was 0.25 µg/mL (≈ 0.248 µM); with H. influenza ATCC49247, 16 µg/mL (≈ 15.9 µM); in the series with S. epidermis ATCC49134, 2 µg/mL (≈ 1.99 µM); against E. faecalis ATCC29212, 2 µg/mL (≈ 1.99 µM). For the same molecule, the AUC/D in [2] amounted to 0.05 μg-hr/mL per mg/kg.
